Source: patent US10815222B2, “Compounds for use in the treatment of kinetoplastid infection” (C.N.C.C.S. S.c.a.r.l. COLLEZIONE NAZIONALE DEI COMPOSTI …, priority 2016, dated 2020)

tested on: Bloodstream form of Trypanosoma brucei, strain Lister 427; assay: Trypanosoma brucei growth inhibition assay (CellTiter-Glo, 24 h); assay type: cell-based; details: Trypanosoma brucei; T. Brucei Growth Inibition Assay, class symbols; read-out: T. Brucei GI EC50
Procedure, shortened: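 Growth read-out was CellTiter-Glo luminescence after 24 h at 37 °C incubation of 1500 bloodstream-form Lister 427 trypanosomes per well with compound, in supplemented IMDM containing 10% FBS and at most 0.25% DMSO.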

First: COc1nc2ccccc2cc1-c1cnc([C@@H]2CN(CC3CCOC3)CCN2C(=O)Cn2c(C)nc3ccc(C(F)(F)F)cc32)[nH]1 (stereo partly drawn) [1-((2S)-2-(5-(2-methoxyquinolin-3-yl)-1H-imidazol-2-yl)-4-((tetrahydrofuran-3-yl)methyl)piperazin-1-yl)-2-(2-methyl-6-(trifluoromethyl)-1H-benzo[d]imidazol-1-yl)ethan-1-one]
Second: COc1nc2ccccc2cc1-c1cnc(C2CN(CC3CCOC3)CCN2C(=O)Cn2c(C)nc3cc(F)ccc32)[nH]1 (stereo not shown)
The EC50 of the first is lower: < 100 nM for the first, 100 to 500 nM for the second. The first is the more potent here.

`CN1CCN(C(=O)C2(c3ccccc3)CC2)C(c2ncc(-c3ccc4ccccc4c3)[nH]2)C1` (stereo not shown) and `Cn1cc(CC(=O)N2CCN(CC3CC3)CC2c2ncc(-c3ccc4ccccc4c3)[nH]2)c2ccccc21` (stereo not shown) fall in the same range of EC50: 1010 to 5000 nM for the first, 1010 to 5000 nM for the second.

First: O=C(Cc1n[nH]c2ccccc12)N1CCN(Cc2ccccc2)CC1c1ncc(-c2ccc3ccccc3c2)[nH]1 (stereo not shown)
Second: Cc1[nH]c2ccccc2c1CC(=O)N1CCN(CCc2ccccc2)CC1c1ncc(-c2ccc3ccccc3c2)[nH]1 (stereo not shown)
The EC50 of the first is higher: 1010 to 5000 nM for the first, 510 to 1000 nM for the second. The second is the more potent here.

Compared with `COc1nc2ccccc2cc1-c1cnc(C2CCN(Cc3ccn(C)n3)CCN2C(=O)Cn2c(C(F)(F)F)nc3ccccc32)[nH]1` (stereo not shown) [1-(7-(5-(2-methoxyquinolin-3-yl)-1H-imidazol-2-yl)-4-((1-methyl-1H-pyrazol-3-yl)methyl)-1,4-diazepan-1-yl)-2-(2-(trifluoromethyl)-1H-benzo[d]imidazol-1-yl)ethan-1-one], `COc1ccc2nc(C(F)(F)F)n(CC(=O)N3CCN(Cc4ccn(C)n4)CC[C@@H]3c3ncc(-c4cc5ccccc5nc4OC)[nH]3)c2c1` [(R)-2-(6-methoxy-2-(trifluoromethyl)-1H-benzo[d]imidazol-1-yl)-1-(7-(5-(2-methoxyquinolin-3-yl)-1H-imidazol-2-yl)-4-((1-methyl-1H-pyrazol-3-yl)methyl)-1,4-diazepan-1-yl)ethan-1-one] is higher in EC50: < 100 nM for the first, 1010 to 5000 nM for the second.

First: COc1ccc2nc(C(F)(F)F)n(CC(=O)N3CCN(Cc4ncnn4C)C[C@H]3c3ncc(-c4cc5ccccc5nc4OC)[nH]3)c2c1 [(S)-2-(6-methoxy-2-(trifluoromethyl)-1H-benzo[d]imidazol-1-yl)-1-(2-(5-(2-methoxyquinolin-3-yl)-1H-imidazol-2-yl)-4-((1-methyl-1H-1,2,4-triazol-5-yl)methyl)piperazin-1-yl)ethan-1-one]
Second: COc1ccc2nc(C(F)(F)F)n(CC(=O)N3CCN(Cc4cnccn4)C[C@H]3c3ncc(-c4cc5ccccc5nc4OC)[nH]3)c2c1 [(S)-2-(6-methoxy-2-(trifluoromethyl)-1H-benzo[d]imidazol-1-yl)-1-(2-(5-(2-methoxyquinolin-3-yl)-1H-imidazol-2-yl)-4-(pyrazin-2-ylmethyl)piperazin-1-yl)ethan-1-one]
The EC50 of the first is higher: 100 to 500 nM for the first, < 100 nM for the second. The second is the more potent here.

Compared with `COc1ccc2nc(C(F)(F)F)n(CC(=O)N3CCN(Cc4cn[nH]c4)CCC3c3ncc(-c4cc5ccccc5nc4OC)[nH]3)c2c1` (stereo not shown), `COc1ccc2nc(C(F)(F)F)n(CC(=O)N3CCN(Cc4ccn(C)n4)CC[C@H]3c3ncc(-c4cc5ccccc5nc4OC)[nH]3)c2c1` [(S)-2-(6-methoxy-2-(trifluoromethyl)-1H-benzo[d]imidazol-1-yl)-1-(7-(5-(2-methoxyquinolin-3-yl)-1H-imidazol-2-yl)-4-((1-methyl-1H-pyrazol-3-yl)methyl)-1,4-diazepan-1-yl)ethan-1-one] is lower in EC50: 100 to 500 nM for the first, < 100 nM for the second.

`COc1nc2ccccc2cc1-c1cnc([C@@H]2CN(Cc3cscn3)CCN2C(=O)Cn2c(C(F)(F)F)nc3ccccc32)[nH]1` [(S)-1-(2-(5-(2-methoxyquinolin-3-yl)-1H-imidazol-2-yl)-4-(thiazol-4-ylmethyl)piperazin-1-yl)-2-(2-(trifluoromethyl)-1H-benzo[d]imidazol-1-yl)ethan-1-one] and `COc1nc2ccccc2cc1-c1cnc([C@@H]2CN(Cc3cccnc3)CCN2C(=O)Cn2c(C(F)(F)F)nc3ccccc32)[nH]1` [(S)-1-(2-(5-(2-methoxyquinolin-3-yl)-1H-imidazol-2-yl)-4-(pyridin-3-ylmethyl)piperazin-1-yl)-2-(2-(trifluoromethyl)-1H-benzo[d]imidazol-1-yl)ethan-1-one] cannot be ordered by EC50: < 100 nM for the first, < 100 nM for the second.

`COc1nc2ccccc2cc1-c1cnc(C2CN(CC3CCOC3)CCN2C(=O)c2nccc3ccccc23)[nH]1` (stereo not shown) and `COc1nc2ccccc2cc1-c1cnc(C2CN(CC3CCOC3)CCN2C(=O)Cn2ccnc2-c2ccccc2)[nH]1` (stereo not shown) fall in the same range of EC50: 1010 to 5000 nM for the first, 1010 to 5000 nM for the second.

`COc1nc2ccccc2cc1-c1cnc([C@@H]2CN(C3CCN(C(C)=O)CC3)CCN2C(=O)Cn2c(C(F)(F)F)nc3ccccc32)[nH]1` [(S)-1-(4-(1-acetylpiperidin-4-yl)-2-(5-(2-methoxyquinolin-3-yl)-1H-imidazol-2-yl)piperazin-1-yl)-2-(2-(trifluoromethyl)-1H-benzo[d]imidazol-1-yl)ethan-1-one] and `COc1nc2ccccc2cc1-c1cnc([C@@H]2CN(C[C@@H]3CCOC3)CCN2C(=O)Cn2c(C(F)(F)F)nc3ccccc32)[nH]1` (single isomer, unassigned) cannot be ordered by EC50: < 100 nM for the first, < 100 nM for the second.

`COc1nc2ccccc2cc1-c1cnc(C2CN(Cc3ccoc3)CCN2C(=O)Cc2c(C)[nH]c3ccc(F)cc23)[nH]1` (stereo not shown) and `COc1nc2ccccc2cc1-c1cnc(C2CN(Cc3cccnc3)CCN2C(=O)Cc2c(C)[nH]c3ccc(F)cc23)[nH]1` (stereo not shown) fall in the same range of EC50: 100 to 500 nM for the first, 100 to 500 nM for the second.

First: COc1ccc2nc(C)n(CC(=O)N3CCS(=O)(=O)CC3c3ncc(-c4cc5ccccc5nc4OC)[nH]3)c2c1 (stereo not shown)
Second: COc1ccc2nc(C)n(CC(=O)N3CCC(O)C[C@H]3c3ncc(-c4cc5ccccc5nc4OC)[nH]3)c2c1 (stereo partly shown)
The EC50 of the first is higher: 1010 to 5000 nM for the first, 510 to 1000 nM for the second.

`COc1nc2ccccc2cc1-c1cnc(C2CN(CC(C)C)CCN2C(=O)Cc2c(C)[nH]c3ccc(F)cc23)[nH]1` (stereo not shown) and `COc1ccc2[nH]c(C)c(CC(=O)N3CCN(C(=O)OC(C)(C)C)CC3c3ncc(-c4cc5ccccc5nc4OC)[nH]3)c2c1` (stereo not shown) fall in the same range of EC50: 100 to 500 nM for the first, 100 to 500 nM for the second.

`COc1ccc2nc(C(F)(F)F)n(CC(=O)N3CCC(O)C[C@H]3c3ncc(-c4cc5ccccc5nc4OC)[nH]3)c2c1` (stereo partly drawn) [1-((2S)-4-hydroxy-2-(5-(2-methoxyquinolin-3-yl)-1H-imidazol-2-yl)piperidin-1-yl)-2-(6-methoxy-2-(trifluoromethyl)-1H-benzo[d]imidazol-1-yl)ethan-1-one] and `COc1ccc2nc(C(F)(F)F)n(CC(=O)N3CC[C@H](N(C)C)C[C@H]3c3ncc(-c4cc5ccccc5nc4OC)[nH]3)c2c1` [1-((2S,4S)-4-(dimethylamino)-2-(5-(2-methoxyquinolin-3-yl)-1H-imidazol-2-yl)piperidin-1-yl)-2-(6-methoxy-2-(trifluoromethyl)-1H-benzo[d]imidazol-1-yl)ethan-1-one] cannot be ordered by EC50: < 100 nM for the first, < 100 nM for the second.

First: COc1ccc2nc(C(F)(F)F)n(CC(=O)N3CCN(C4CCOCC4)CCC3c3ncc(-c4cc5ccccc5nc4OC)[nH]3)c2c1 (stereo not shown) [2-(6-methoxy-2-(trifluoromethyl)-1H-benzo[d]imidazol-1-yl)-1-(7-(5-(2-methoxyquinolin-3-yl)-1H-imidazol-2-yl)-4-(tetrahydro-2H-pyran-4-yl)-1,4-diazepan-1-yl)ethan-1-one]
Second: COc1ccc2nc(C)n(CC(=O)N3CCN(C4CCOCC4)C[C@H]3c3ncc(-c4cc5ccccc5nc4OC)[nH]3)c2c1
The EC50 of the first is lower: < 100 nM for the first, 100 to 500 nM for the second.

First: COc1nc2ccccc2cc1-c1cnc(C2CS(=O)(=O)CCN2C(=O)Cn2nc(C)c3ccccc3c2=O)[nH]1 (stereo not shown)
Second: COc1nc2ccccc2cc1-c1cnc(C2CN(CC3CCOC3)CCN2C(=O)CN2C(=O)c3ccccc3C2=O)[nH]1 (stereo not shown)
The EC50 of the first is higher: 1010 to 5000 nM for the first, 510 to 1000 nM for the second.

First: COc1ccc2nc(C(F)(F)F)n(CC(=O)N3CCOCC3c3ncc(-c4cc5ccccc5nc4OC)[nH]3)c2c1 (stereo not shown)
Second: COc1ccc2nc(C(F)(F)F)n(CC(=O)N3CCN(CCn4cnnc4)C[C@H]3c3ncc(-c4cc5ccccc5nc4OC)[nH]3)c2c1
The EC50 of the first is lower: 100 to 500 nM for the first, 1010 to 5000 nM for the second.

First: COc1ccc2nc(C)n(CC(=O)N3CC[C@H](NCC4CCOC4)C[C@H]3c3ncc(-c4cc5ccccc5nc4OC)[nH]3)c2c1 (stereo partly shown)
Second: COc1ccc2nc(C(F)(F)F)n(CC(=O)N3CC[C@H](NCCn4cccn4)C[C@H]3c3ncc(-c4cc5ccccc5nc4OC)[nH]3)c2c1 [1-((2S,4S)-4-((2-(1H-pyrazol-1-yl)ethyl)amino)-2-(5-(2-methoxyquinolin-3-yl)-1H-imidazol-2-yl)piperidin-1-yl)-2-(6-methoxy-2-(trifluoromethyl)-1H-benzo[d]imidazol-1-yl)ethan-1-one]
The EC50 of the first is higher: 1010 to 5000 nM for the first, < 100 nM for the second. The second is the more potent here.

`COc1ccc2nc(C(F)(F)F)n(CC(=O)N3CCN(Cc4cnc(C)s4)CCC3c3ncc(-c4cc5ccccc5nc4OC)[nH]3)c2c1` (stereo not shown) and `COc1ccc2cc(C)n(CC(=O)N3CCCCC3c3ncc(-c4cc5ccccc5nc4OC)[nH]3)c2c1` (stereo not shown) fall in the same range of EC50: 100 to 500 nM for the first, 100 to 500 nM for the second.

`COc1nc2ccccc2cc1-c1cnc([C@@H]2CN(CC3CCOC3)CCN2C(=O)Cn2cc(C(F)(F)F)nc2C)[nH]1` (stereo partly shown) and `COc1nc2ccccc2cc1-c1cnc([C@@H]2CN(CC3CCOC3)CCN2C(=O)Cn2c(C(F)(F)F)nc3ncccc32)[nH]1` (stereo partly shown) fall in the same range of EC50: 1010 to 5000 nM for the first, 1010 to 5000 nM for the second.

Compared with `COc1ccc2c(c1)C(CC(=O)N1CCN(Cc3ccccc3)CC1c1ncc(-c3ccc4ccccc4c3)[nH]1)C(=O)N2` (stereo not shown), `COc1ccc2c(c1)C(CC(=O)N1CCN(CC3CCOC3)CC1c1ncc(-c3cc4ccccc4nc3OC)[nH]1)C(=O)N2` (stereo not shown) is higher in EC50: 510 to 1000 nM for the first, 1010 to 5000 nM for the second. The first is the more potent here.

`COc1nc2ccccc2cc1-c1cnc(C2CN(CC3CCOC3)CCN2C(=O)c2cc3cc(OCc4ccccc4)ccc3[nH]2)[nH]1` (stereo not shown) and `COc1nc2ccccc2cc1-c1cnc(C2CN(CC3CCOC3)CCN2C(=O)c2cc(C)n(Cc3ccccc3)n2)[nH]1` (stereo not shown) fall in the same range of EC50: 1010 to 5000 nM for the first, 1010 to 5000 nM for the second.

First: COc1ccc2[nH]c(C)c(CC(=O)N3CCN(CCCC(N)=O)CC3c3ncc(-c4ccc5ccccc5c4)[nH]3)c2c1 (stereo not shown)
Second: COc1nc2ccccc2cc1-c1cnc(C2CN(CC3CCOC3)CCN2C(=O)Cn2ccc3cc(C#N)ccc32)[nH]1 (stereo not shown)
The EC50 of the first is lower: 100 to 500 nM for the first, 510 to 1000 nM for the second. The first is the more potent here.

`COc1nc2ccccc2cc1-c1cnc(C2CN(CC3CCOC3)CCN2C(=O)Cc2cnc3ccccn23)[nH]1` (stereo not shown) and `COc1ccc2nc(C)n(CC(=O)N3CCN(CC4CCOC4)C[C@H]3c3ncc(/C=C/c4ccccc4)[nH]3)c2c1` (stereo partly drawn) [2-(6-methoxy-2-methyl-1H-benzo[d]imidazol-1-yl)-1-((2S)-2-(5-((E)-styryl)-1H-imidazol-2-yl)-4-((tetrahydrofuran-3-yl)methyl)piperazin-1-yl)ethan-1-one] fall in the same range of EC50: 1010 to 5000 nM for the first, 1010 to 5000 nM for the second.
